# Test results: patent publication US20190127359A1, “Compounds & Methods for the Enhanced Degradation of Targeted Proteins & Other Polypeptides by an E3 Ubiquitin Ligase” (YALE UNIVERSITY, priority 2012, published 2019)
# Molecular target: VHL (Homo sapiens, UniProt P40337)
# Experiment: Fluorescence polarization competition assay (HIF-1α peptide FP displacement)
# Conditions: 10% DMSO
row,IC50 (μM) 10% DMSO,Structure (SMILES)
1,Inactive,CS(=O)(=O)N1C[C@H](O)C[C@H]1C(=O)NCCc1ccc(O)cc1 [VL006]
2,Inactive,CS(=O)(=O)N1C[C@H](O)C[C@H]1C(=O)NCc1cccc(Cl)c1 [VL007]
3,Inactive,Cc1ccc(S(=O)(=O)N2C[C@H](O)C[C@H]2C(=O)Nc2ccc(Br)cc2F)cc1 [VL009]
4,Inactive,CS(=O)(=O)N1C[C@H](O)C[C@H]1C(=O)Nc1ccc(Br)cc1F [VL010]

# Same assay, conditions: IC50 (μM) 1% DMSO, 1% DMSO
row,IC50 [µM],Structure (SMILES)
1,46,O=C(NCc1ccc(Cl)cc1)[C@@H]1C[C@@H](O)CN1C(=O)c1ccccc1Cl [VL073]

# Same assay, conditions: IC50 (μM) 10% DMSO, 10% DMSO
row,Structure (SMILES),IC50 [µM]
1,O=C(Nc1ccc(Br)cc1F)[C@@H]1C[C@@H](O)CN1S(=O)(=O)c1ccc2ccccc2c1 [VL001],> 1000
2,"Cc1cc(CC(=O)N2C[C@H](O)C[C@H]2C(=O)NCCc2ccc(O)cc2)on1 [VL002, (2S,4R)-4-hydroxy-N-(4-hydroxyphenethyl)-1-(2-(3-methylisoxazol-5-yl)acetyl)pyrrolidine-2-carboxamide]",241
3,Cc1ccc(S(=O)(=O)N2C[C@H](O)C[C@H]2C(=O)NCCc2ccc(O)cc2)cc1 [VL003],> 1000
4,"Cc1cc(CC(=O)N2C[C@H](O)C[C@H]2C(=O)NCc2cccc(Cl)c2)on1 [VL004, (2S,4R)—N-(3-chlorobenzyl)-4-hydroxy-1-(2-(3-methylisoxazol-5-yl)acetyl)pyrrolidine-2-carboxamide]",123
5,O=C(NCCc1ccc(O)cc1)[C@@H]1C[C@@H](O)CN1C(=O)Cc1nnn[nH]1 [VL005],> 1000
6,Cc1ccc(S(=O)(=O)N2C[C@H](O)C[C@H]2C(=O)NCc2cccc(Cl)c2)cc1 [VL008],> 1000
7,Cc1cc(CC(=O)N2C[C@H](O)C[C@H]2C(=O)Nc2ccc(Br)cc2F)on1 [VL011],> 1000
8,O=C(NCc1cccc(Cl)c1)[C@@H]1C[C@@H](O)CN1C(=O)Cc1nnn[nH]1 [VL012],> 1000
9,O=C(NCc1cccc(Cl)c1)[C@@H]1C[C@@H](O)CN1S(=O)(=O)c1cccc([N+](=O)[O-])c1 [VL013],240
10,Cc1cc(CC(=O)N2C[C@H](O)C[C@H]2C(=O)NCc2ccc(-c3ccccc3)cc2)on1 [VL014],4.7
11,Cc1cc(CC(=O)N2C[C@H](O)C[C@H]2C(=O)NCCN2CCOCC2)on1 [VL015],> 1000
12,Cc1cc(CC(=O)N2C[C@H](O)C[C@H]2C(=O)NCc2cccs2)on1 [VL016],~730
13,Cc1cc(CC(=O)N2C[C@H](O)C[C@H]2C(=O)NCc2ccc3c(c2)OCO3)on1 [VL017],~510
14,Cc1cc(CC(=O)N2C[C@H](O)C[C@H]2C(=O)NCc2ccc(N(C)C)cc2)on1 [VL018],280
15,Cc1cc(CC(=O)N2C[C@H](O)C[C@H]2C(=O)NCc2ccccn2)on1 [VL019],451
16,Cc1cc(CC(=O)N2C[C@H](O)C[C@H]2C(=O)NCc2ccc(F)cc2)on1 [VL020],295
17,Cc1cc(CC(=O)N2C[C@H](O)C[C@H]2C(=O)NCc2ccc(Cl)cc2)on1 [VL021],36
18,Cc1cc(CC(=O)N2C[C@H](O)C[C@H]2C(=O)NCc2cccc(C(F)(F)F)c2)on1 [VL022],~870

row,Structure (SMILES),IC50 [µM]
1,Cc1cc(CC(=O)N2C[C@H](O)C[C@H]2C(=O)NCc2ccc(Cl)c(C(F)(F)F)c2)on1 [VL023],589
2,COc1cccc(CNC(=O)[C@@H]2C[C@@H](O)CN2C(=O)Cc2cc(C)no2)c1 [VL024],511
3,COc1ccc(CNC(=O)[C@@H]2C[C@@H](O)CN2C(=O)Cc2cc(C)no2)cc1OC [VL025],517
4,CNC(=O)c1cc(Oc2ccc(NC(=O)[C@@H]3C[C@@H](O)CN3C(=O)Cc3cc(C)no3)cc2)ccn1 [VL027],> 1000
5,Cc1cc(CC(=O)N2C[C@H](O)C[C@H]2C(=O)NCc2ccccc2Cl)on1 [VL028],210
6,Cc1cc(CC(=O)N2C[C@H](O)C[C@H]2C(=O)NCc2ccc(Br)cc2)on1 [VL029],24.9
7,Cc1cc(CC(=O)N2C[C@H](O)C[C@H]2C(=O)NCc2ccc(Cl)c(Cl)c2)on1 [VL030],215
8,Cc1cc(CC(=O)N2C[C@H](O)C[C@H]2C(=O)NCc2ccc(C(C)(C)C)cc2)on1 [VL031],68.5
9,Cc1cc(CC(=O)N2C[C@H](O)C[C@H]2C(=O)N[C@@H](C)c2ccccc2)on1 [VL032],639
10,Cc1cc(CC(=O)N2C[C@H](O)C[C@H]2C(=O)N[C@H](C)c2ccccc2)on1 [VL033],> 1000
11,Cc1cc(CC(=O)N2C[C@H](O)C[C@H]2C(=O)NCc2cccnc2)on1 [VL036],744
12,Cc1cc(CC(=O)N2C[C@H](O)C[C@H]2C(=O)NCc2ccncc2)on1 [VL037],88.8
13,Cc1cc(CC(=O)N2C[C@H](O)C[C@H]2C(=O)N2CCc3ccccc3C2)on1 [VL039],> 1000
14,COc1ccccc1N1CCN(C(=O)[C@@H]2C[C@@H](O)CN2C(=O)Cc2cc(C)no2)CC1 [VL043],> 1000
15,Cc1cc(CC(=O)N2C[C@H](O)C[C@H]2C(=O)NCc2ccc(C)o2)on1 [VL044],286
16,Cc1cc(CC(=O)N2C[C@H](O)C[C@H]2C(=O)NCc2ccc(OC(F)(F)F)cc2)on1 [VL045],146
17,Cc1cc(CC(=O)N2C[C@H](O)C[C@H]2C(=O)NCc2ccc(C(F)(F)F)cc2)on1 [VL046],215

# Continued, values first:
row,IC50 [µM],Structure (SMILES)
1,24.8,Cc1cc(CC(=O)N2C[C@H](O)C[C@H]2C(=O)NCc2ccc([N+](=O)[O-])cc2)on1 [VL048]
2,15.1,Cc1cc(CC(=O)N2C[C@H](O)C[C@H]2C(=O)N[C@@H](C)c2ccc([N+](=O)[O-])cc2)on1 [VL049]
3,332,NC(=O)CCC(=O)N1C[C@H](O)C[C@H]1C(=O)NCc1ccc(Cl)cc1 [VL050]
4,> 1000,N#CCC(=O)N1C[C@H](O)C[C@H]1C(=O)NCc1ccc(Cl)cc1 [VL051]
5,> 1000,O=C(NCc1ccc(Cl)cc1)[C@@H]1C[C@@H](O)CN1C(=O)Cc1ccco1 [VL052]
6,> 1000,O=C(NCc1ccc(Cl)cc1)[C@@H]1C[C@@H](O)CN1C(=O)Cc1cccs1 [VL053]
7,140,O=C(NCc1ccc(Cl)cc1)[C@@H]1C[C@@H](O)CN1C(=O)c1cccc(Cl)c1 [VL054]
8,910,O=C(NCc1ccc(Cl)cc1)[C@@H]1C[C@@H](O)CN1C(=O)Cc1cccc(Br)c1 [VL055]
9,939,N#Cc1ccc(CC(=O)N2C[C@H](O)C[C@H]2C(=O)NCc2ccc(Cl)cc2)cc1 [VL056]
10,> 1000,COc1cc(/C=C/C(=O)N2C[C@H](O)C[C@H]2C(=O)NCc2ccc(Cl)cc2)cc(OC)c1O [VL057]
11,> 1000,CS(=O)(=O)c1ccc(CC(=O)N2C[C@H](O)C[C@H]2C(=O)NCc2ccc(Cl)cc2)cc1 [VL058]
12,205,N#Cc1cc(Br)cc(C(=O)N2C[C@H](O)C[C@H]2C(=O)NCc2ccc(Cl)cc2)c1 [VL059]
13,> 1000,O=C(NCc1ccc(Cl)cc1)[C@@H]1C[C@@H](O)CN1C(=O)c1cc(-c2ccccc2)on1 [VL060]
14,419,O=C(NCc1ccc(Cl)cc1)[C@@H]1C[C@@H](O)CN1C(=O)c1cc(C2CC2)on1 [VL061]
15,> 1000,O=C(NCc1ccc(Cl)cc1)[C@@H]1C[C@@H](O)CN1C(=O)Cc1ccncc1 [VL062]
16,> 1000,N#Cc1cc(S(=O)(=O)N2C[C@H](O)C[C@H]2C(=O)NCc2ccc(Cl)cc2)ccc1F [VL063]
17,110,O=C(NCc1ccc(Cl)cc1)[C@@H]1C[C@@H](O)CN1C(=O)c1ccccc1 [VL064]
18,74.2,O=C(NCc1ccc(Cl)cc1)[C@@H]1C[C@@H](O)CN1C(=O)c1ccccc1[N+](=O)[O-] [VL065]

row,IC50 [µM],Structure (SMILES)
1,72.4,Cc1c(C(=O)N2C[C@H](O)C[C@H]2C(=O)NCc2ccc(Cl)cc2)cccc1[N+](=O)[O-] [VL066]
2,70.7,O=C(NCc1ccc(Cl)cc1)[C@@H]1C[C@@H](O)CN1C(=O)c1ccc([N+](=O)[O-])cc1 [VL067]
3,> 1000,N#Cc1ccc(CC(=O)N2C[C@H](O)C[C@H]2C(=O)NCc2ccc(Cl)cc2)s1 [VL068]
4,23.8,COc1ccc(C(=O)N2C[C@H](O)C[C@H]2C(=O)NCc2ccc(Cl)cc2)cc1OC [VL069]
5,38.2,Nc1ccccc1C(=O)N1C[C@H](O)C[C@H]1C(=O)NCc1ccc(Cl)cc1 [VL070]
6,10.4,Cc1c(N)cccc1C(=O)N1C[C@H](O)C[C@H]1C(=O)NCc1ccc(Cl)cc1 [VL071]
7,29.5,Nc1ccc(C(=O)N2C[C@H](O)C[C@H]2C(=O)NCc2ccc(Cl)cc2)cc1 [VL072]
8,39,O=C(NCc1ccc(Cl)cc1)[C@@H]1C[C@@H](O)CN1C(=O)c1ccccc1Cl [VL073]
9,42.9,O=C(NCc1ccc(Cl)cc1)[C@@H]1C[C@@H](O)CN1C(=O)c1ccc(Cl)cc1 [VL074]
10,35.5,O=C(NCc1ccc(Cl)cc1)[C@@H]1C[C@@H](O)CN1C(=O)c1cccc(F)c1 [VL075]
11,19.6,O=C(NCc1ccc(Cl)cc1)[C@@H]1C[C@@H](O)CN1C(=O)c1cccc(Br)c1 [VL076]
12,8.9,N#Cc1cccc(C(=O)N2C[C@H](O)C[C@H]2C(=O)NCc2ccc(Cl)cc2)c1 [VL077]
13,60.2,O=C(NCc1ccc(Cl)cc1)[C@@H]1C[C@@H](O)CN1C(=O)c1cccc(C(F)(F)F)c1 [VL078]
14,26.3,COc1cccc(C(=O)N2C[C@H](O)C[C@H]2C(=O)NCc2ccc(Cl)cc2)c1 [VL079]
15,17,O=C(NCc1ccc(Cl)cc1)[C@@H]1C[C@@H](O)CN1C(=O)c1cccc(O)c1 [VL080]
16,15.5,O=C(NCc1ccc(Cl)cc1)[C@@H]1C[C@@H](O)CN1C(=O)c1ccc(Cl)cc1Br [VL081]
17,29,NS(=O)(=O)c1ccc(C(=O)N2C[C@H](O)C[C@H]2C(=O)NCc2ccc(Cl)cc2)cc1 [VL082]

# Same assay, conditions: Table 1A, binding of initial ligands to VHL; average of three independent trials, each in triplicate
row,Structure (SMILES),IC50 [µM]
1,Cc1cc(CC(=O)N2C[C@H](O)C[C@H]2C(=O)NCc2cccc(Cl)c2)on1 [Compound 1],117
2,Cc1cc(CC(=O)N2C[C@H](O)C[C@H]2C(=O)NCCc2ccc(O)cc2)on1 [Compound 2],120

# Same assay, conditions: fluorescence polarization, result in words
row,Structure (SMILES),displacement of the fluorescent HIF-1α peptide
1,Cc1cc(CC(=O)N2C[C@H](O)C[C@H]2C(=O)NCc2cccc(Cl)c2)on1 [Compound 1],able to displace the fluorescent peptide albeit at high concentrations
2,Cc1cc(CC(=O)N2C[C@H](O)C[C@H]2C(=O)NCCc2ccc(O)cc2)on1 [Compound 2],able to displace the fluorescent peptide albeit at high concentrations

# Same assay, conditions: read-out: IC50 (μM) 1% DMSO; 1% DMSO
row,Structure (SMILES),IC50 [µM]
1,"Cc1cc(CC(=O)N2C[C@H](O)C[C@H]2C(=O)NCCc2ccc(O)cc2)on1 [VL002, (2S,4R)-4-hydroxy-N-(4-hydroxyphenethyl)-1-(2-(3-methylisoxazol-5-yl)acetyl)pyrrolidine-2-carboxamide]",120
2,"Cc1cc(CC(=O)N2C[C@H](O)C[C@H]2C(=O)NCc2cccc(Cl)c2)on1 [VL004, (2S,4R)—N-(3-chlorobenzyl)-4-hydroxy-1-(2-(3-methylisoxazol-5-yl)acetyl)pyrrolidine-2-carboxamide]",117
3,Cc1cc(CC(=O)N2C[C@H](O)C[C@H]2C(=O)NCc2ccccc2)on1 [VL034],130
